Laboratory results published in a melting point compilation (Tetko et al.).

Row | SMILES | melting point [°C]
1 | CCOC(=O)C(=Cc1cc(N)cc(C=C(C(=O)OCC)C(=O)OCC)c1)C(=O)OCC | 174
2 | CCC1(CC)C(=O)NCC(C)C1=O (stereo not drawn) | 76
3 | CC(=O)c1nn(-c2ccccc2)c2cc3c(cc12)c(C(C)=O)nn3-c1ccccc1 | 310 to 312
4 | COc1ccc2sc(C)nc2c1 | 36
5 | CC(Cc1ccccc1)NC(C#N)c1ccccc1 (stereo not drawn) | 85
6 | Brc1cccnc1Br | 59
7 | COc1ccc(C=CC(=O)c2ccc(OC)cc2OC)cc1 | 97
8 | CCCn1c(C(=O)O)cc2c(=O)n(C)c(=O)n(C)c21 | 139
9 | Cc1ccc(C)c(O)c1C | 58
10 | O=C1NCc2ccccc21 | 151
11 | CN(C)c1ccc(C(=O)NN)cc1 | 175
12 | c1cncc(C2CCCCN2)c1 (stereo not drawn) | 9
13 | N#CC(C#N)=C1CC(c2ccc(Cl)cc2)=C(C#N)C(=N)N1c1ccccc1 | 290 to 295
14 | CC(/C=C(C)/C=C/c1ccccc1)=NNS(=O)(=O)c1ccc(C)cc1 | 138 to 142
15 | CC(C)(C)c1ccc(-c2noc(CCl)n2)cc1 | 46 to 48
16 | Cc1ccc(-n2nc(C)cc2O)cc1 | 132 to 133
17 | CC(C)COC(=O)c1ccc(C(=O)OCC(C)C)cc1 | 55
18 | Fc1c(F)c(CCl)c(F)c(F)c1CCl | 77 to 78
19 | O=[N+]([O-])c1cccc2ncccc12 | 74
20 | O=C(O)c1cccc(-n2ccnc2)c1 | 194 to 199
21 | NNC(=O)CNc1nc(N)n[nH]1 | 225
22 | Cc1ccc(NC(=O)C(C(F)(F)F)C(F)(F)F)cc1 | 196

Row | SMILES | melting point [°C]
23 | COC(=O)c1csc(S(=O)(=O)Cl)c1OC | 93 to 96
24 | CN1C2CCC1CC(OC(=O)c1ccccc1)C2 (stereo not drawn) | 49
25 | COC(=O)c1ccc(OC)c(OC2CCCC2)c1 | 59 to 61
26 | CC(C)S(=O)(=O)c1cnc(-c2ccccn2)nc1N | 147 to 150
27 | CC(C)(C)OC(=O)n1cc(C(=O)O)c2c(Br)cccc21 | 149 to 150
28 | CC(C)S(=O)(=O)c1csc(C(=O)O)c1N | 158
29 | O=C1c2ccccc2C(=O)c2c1cc(O)c(O)c2O | 313
30 | Cc1ccc(NC(=O)C(F)(F)C(F)(F)C(F)(F)C(F)(F)C(F)(F)C(F)(F)C(F)(F)C(F)(F)F)cc1C | 111
31 | CC1(C)OC(=O)C(=C2CCCN2)C(=O)O1 | 171 to 175
32 | NC(=O)C1=CNCCC1C(F)(F)F (stereo not drawn) | 184 to 187
33 | ClCc1ccc(-c2nccs2)cc1 | 67 to 69
34 | CC(=O)NC(=Cc1ccccc1)C(=O)O | 192
35 | Cc1cc(C(=O)O)c(C)n1C | 150
36 | CC(C)c1cccc(O)c1 | 26
37 | Cc1nc(N)nc(Cl)c1Cc1ccccc1 | 195 to 196
38 | O=C(OCC(=O)N1CCCC1)c1ccccc1 | 58
39 | CCC(O)C(C)(C)C (stereo not drawn) | -1.67
40 | CCOC(=O)c1c(C)oc(N)c1C(=O)OCC | 84 to 85
41 | O=C(O)c1cnn(-c2ccc([N+](=O)[O-])cc2[N+](=O)[O-])c1 | 260 to 262
42 | O=C1CCCCC1 | -26
43 | COc1cccc(CNC(=O)c2[nH]c3ccccc3c2CCO)c1 | 151
44 | C#CC1(O)CCC2C3C(C)CC4=C(CCC(=O)C4)C3CCC21C (stereo not drawn) | 167

Row | SMILES | melting point [°C]
45 | CSc1ccc(Br)cc1 | 38.5
46 | O=C(C1=NOC2C(=O)N(c3ccccc3)C(=O)C12)c1ccccc1 (stereo not drawn) | 161
47 | C=C1C(C)CCC2(C)C3=C(C(=O)C4(CC4C)C(O)C3=O)C(O)C(O)C12 (stereo not drawn) | 194
48 | COC(=O)Nc1cccc(OC(=O)Nc2cccc(C)c2)c1 | 143
49 | O=C(O)Cc1ccc2ccccc2c1 | 142
50 | Brc1ccc(Oc2ccccc2)c(Br)c1 | < 20
51 | CC(=O)NC1C(OCc2ccccc2)OC(COC(c2ccccc2)(c2ccccc2)c2ccccc2)C(O)C1O (stereo not drawn) | 102 to 107
52 | N#CCC(=O)Nc1ccccc1 | 198 to 202
53 | Cn1c(C=O)cc2sccc21 | 63 to 64
54 | CCOC(=O)CCC(C)C1CCC2C3C(=O)CC4CC(O)CCC4(C)C3CC(O)C12C (stereo not drawn) | 161
55 | C#CCCCCCCCCCCC | -5
56 | CC1(C)C=C(C(=O)O)C(C)(C)N1O | 202
57 | COC1=C(OC)/C(=C/CN=[N+]=[N-])OC1=O | 55 to 57
58 | O=C(C1=NOC2C(=O)N(c3ccc(F)cc3)C(=O)C12)c1ccccc1 (stereo not drawn) | 156
59 | CC1=C[C@@]2(C)O[C@@H](c3ccccc3)[C@@H]1C(C#N)(C#N)C2(C#N)C#N | 170 to 171
60 | O=[N+]([O-])c1cc2c(cc1CO)OCO2 | 123
61 | CCCCCCCCCC1(C)N=C(c2ccccc2)C=[N+]1[O-] (stereo not drawn) | 43 to 46
62 | CC(C)(C)NCC(O)c1ccccc1Cl (stereo not drawn) | 89
63 | Cn1c(=O)c(C2=NNC(=O)C2=CCc2ccccc2)c(O)c2ccccc21 | 249
64 | Cc1nc2ccc(S(=O)(=O)Cl)cc2s1 | 98 to 101
65 | Cc1ccc(Oc2ccc(C)cc2)cc1 | 51
66 | Nc1ccc(N)c2c1C(=O)c1cccc([N+](=O)[O-])c1C2=O | 257

Row | SMILES | melting point [°C]
67 | NNC(=O)c1ccccc1-c1ccccc1 | 140 to 143
68 | O=C(O)c1ccc2c(c1)OCCO2 | 133 to 137
69 | CCNS(=O)(=O)C(F)(F)C(F)(F)C(F)(F)C(F)(F)C(F)(F)C(F)(F)C(F)(F)C(F)(F)F | 96
70 | CC(C)(C)OC(=O)c1cc2cc3c4c(c2oc1=O)CCCN4CCC3 | 171
71 | c1ccc(Oc2nc(-c3ccccc3)nc3nc4ccccc4n23)cc1 | 247
72 | COc1ccc(C(=O)/C(=N\Nc2cc(Cl)ccc2Cl)S(=O)(=O)c2ccccc2)cc1 | 115
73 | N#CC1=C(N)Oc2c(c(C(F)(F)F)nn2-c2ccccc2)C1c1ccccc1Cl (stereo not drawn) | 166
74 | Cn1c(/C(C#N)=N/Nc2ccc(C(=O)O)cc2)nc2ccccc21 | 200
75 | CCOC(=O)c1cnn(C)c1N | 101 to 102
76 | O=C(Nc1ccc([N+](=O)[O-])cc1Cl)c1cc(Cl)ccc1O | 230
77 | O=C(OCCO)c1ccccc1 | 45
78 | CC(=O)NC1C(OCc2ccccc2)OC2COC(c3ccccc3)OC2C1OC(C)C(=O)O (stereo not drawn) | 220 to 222
79 | O=S(=O)(n1ccnc1)n1ccnc1 | 135 to 137
80 | CC=C(C(=CC)c1ccc(O)cc1)c1ccc(O)cc1 | 228
81 | N#C/C(=N\Nc1cc(Cl)ccc1Cl)c1nc2ccccc2[nH]1 | 300 to 302
82 | CC(C)C(=NO)C(C)C | 34
83 | Clc1ccc2c(c1)Oc1ccccc1O2 | 88
84 | CC(=O)c1ccc(-c2ccc(Br)cc2)cc1 | 126
85 | C#CC(O)CCCCC (stereo not drawn) | -60
86 | COc1ccc2c3c1OC1C(O)C=CC4C(C2)[N+](C)([O-])CCC341 (stereo not drawn) | 232
87 | O=C(O)C(F)(F)C(F)(F)C(F)(F)C(F)(F)C(F)(F)C(F)(F)F | 31 to 36
88 | CC1(C)CC2C(C(=O)O1)C2(C)C (stereo not drawn) | 80 to 83
